Reference: patent US7727980B2, “Tricyclic androgen receptor modulator compounds and methods” (priority 2001, dated 2010)
Like-named read-outs stand apart in the source and are kept apart here.

Columns and labels:
human AR [1] = target: T1, human AR (Homo sapiens, UniProt P10275); experiment: AR whole cell competitive binding assay (3H-DHT), transfected COS-1 cells; design: expressed in transfected cells; transient transfection with pRShAR; settings: AR Binding Ki (nM), COS-1 cells, 1 nM 3H-DHT, Cheng-Prusoff from IC50
T1 sequence (P10275 1-920): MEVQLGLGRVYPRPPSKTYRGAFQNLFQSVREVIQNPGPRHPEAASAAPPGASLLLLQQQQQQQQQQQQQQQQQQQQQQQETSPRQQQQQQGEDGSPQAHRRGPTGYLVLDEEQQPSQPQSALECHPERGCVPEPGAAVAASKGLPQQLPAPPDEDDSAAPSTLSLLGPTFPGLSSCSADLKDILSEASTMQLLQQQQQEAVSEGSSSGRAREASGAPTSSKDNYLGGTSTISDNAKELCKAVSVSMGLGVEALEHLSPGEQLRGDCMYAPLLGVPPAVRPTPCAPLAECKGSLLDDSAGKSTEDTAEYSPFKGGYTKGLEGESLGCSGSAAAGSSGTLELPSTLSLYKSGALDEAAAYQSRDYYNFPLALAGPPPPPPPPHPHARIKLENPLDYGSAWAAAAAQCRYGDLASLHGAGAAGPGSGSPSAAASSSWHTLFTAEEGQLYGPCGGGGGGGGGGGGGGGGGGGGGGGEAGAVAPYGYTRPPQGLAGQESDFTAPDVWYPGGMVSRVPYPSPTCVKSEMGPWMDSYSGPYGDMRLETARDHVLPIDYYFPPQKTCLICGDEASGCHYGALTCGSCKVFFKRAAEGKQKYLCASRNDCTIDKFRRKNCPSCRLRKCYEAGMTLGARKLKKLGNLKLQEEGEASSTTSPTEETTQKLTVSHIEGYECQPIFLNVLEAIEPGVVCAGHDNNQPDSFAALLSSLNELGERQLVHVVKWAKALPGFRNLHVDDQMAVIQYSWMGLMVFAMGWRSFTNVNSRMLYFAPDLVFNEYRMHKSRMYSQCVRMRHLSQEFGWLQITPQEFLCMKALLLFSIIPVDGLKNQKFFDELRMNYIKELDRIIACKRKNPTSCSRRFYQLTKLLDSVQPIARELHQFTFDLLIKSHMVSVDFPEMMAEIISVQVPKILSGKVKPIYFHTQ
Description: AR Binding: For the whole cell binding assay, COS-1 cells in 96-well microtiter plates containing DMEM-10% FBS were transfected as described above with the following plasmid DNA: pRShAR (2 ng/well), pRS-β-Gal (50 ng/well) and pGEM (48 ng/well). Six hours after transfection, media was removed, the cells were washed with PBS and fresh media was added. The next day, the media was changed to DMEM-serum free to remove any endogenous ligand that might be complexed with the receptor in the cells.
Three replicates were used for each sample. […] The remaining media was removed, the cells were washed three times with PBS to remove unbound ligand and cells were lysed with a Triton X-100-based buffer.
For the saturation analyses, the difference between the total binding and the nonspecific binding, normalized by the β-Gal rate, was defined as specific binding. […] The Ki values were determined by application of the Cheng-Prusoff equation to the IC50 values, where: […]
After correcting for non-specific binding, IC50 values were determined. […] The IC50 value was determined graphically from a log-logit plot of the data. The Ki values were determined by application of the Cheng-Prusoff equation to the IC50 values, the labeled ligand concentration and the Kd of the labeled ligand.

human AR [2] = target: T1, human AR; experiment: Co-transfection assay, AR agonist activity, CV-1 cells; type: cell-based; design: expressed in transfected cells; host or cells: CV-1 cells (African green monkey kidney fibroblasts), transient transfection with pRShAR; settings: for EC50: AR Agonist CV-1 Cells Potency (nM), agonist potency or EC50; for AR Agonist CV-1 Cells Efficacy (%): percent maximal response relative to reference agonist DHT
Text: (§1) The co-transfection assay provides a method for identifying functional agonists and partial agonists which mimic, or antagonists which inhibit, the effect of native hormones and quantifying their activity for responsive IR proteins. In this regard, the co-transfection assay mimics an in vivo system in the laboratory. Importantly, activity in the co-transfection assay correlates very well with known in vivo activity, such that the co-transfection assay functions as a qualitative and quantitative predictor of a tested compounds in vivo pharmacology. See, e.g., T. Berger et al. 41 J. Steroid Biochem. Molec.
(§2) In the co-transfection assay, a cloned cDNA for an IR (e.g., human PR, AR or GR) under the control of a constitutive promoter (e.g., the SV 40 promoter) is introduced by transfection (a procedure to induce cells to take up foreign genes) into a background cell substantially devoid of endogenous IRs. This introduced gene directs the recipient cells to make the IR protein of interest. A second gene is also introduced (co-transfected) into the same cells in conjunction with the IR gene. This second gene, comprising the cDNA for a reporter protein, such as firefly luciferase (LUC), controlled by an appropriate hormone responsive promoter containing a hormone response element (HRE). This reporter plasmid functions as a reporter for the transcription-modulating activity of the target IR. Thus, the reporter acts as a surrogate for the products (mRNA then protein) normally expressed by a gene under control of the target receptor and its native hormone.
(§3) The co-transfection assay can detect small molecule agonists or antagonists of target IRs. Exposing the transfected cells to an agonist ligand compound increases reporter activity in the transfected cells. This activity can be conveniently measured, e.g., by increasing luciferase production, which reflects compound-dependent, IR-mediated increases in reporter transcription. […] To detect antagonists, the co-transfection assay is carried out in the presence of a constant concentration of an agonist to the target IR (e.g., progesterone for PR) known to induce a defined reporter signal. Increasing concentrations of a suspected antagonist will decrease the reporter signal (e.g., luciferase production). The co-transfection assay is therefore useful to detect both agonists and antagonists of specific IRs. Furthermore, it determines not only whether a compound interacts with a particular IR, but whether this interaction mimics (agonizes) or blocks (antagonizes) the effects of the native regulatory molecules on target gene expression, as well as the specificity and strength of this interaction.
(§4) CV-1 cells (African green monkey kidney fibroblasts) were cultured in the presence of Dulbecco's Modified Eagle Medium (DMEM) supplemented with 10% charcoal resin-stripped fetal bovine serum then transferred to 96-well microtiter plates one day prior to transfection.
(§5) The reporter plasmid, MTV-LUC, contains the cDNA for firefly luciferase (LUC) under control of the mouse mammary tumor virus (MTV) long terminal repeat, a conditional promoter containing an androgen response element. See e.g., Berger et al. supra. In addition, pRS-β-Gal, coding for constitutive expression of E. coli β-galactosidase (β-Gal), was included as an internal control for evaluation of transfection efficiency and compound toxicity.
(§6) Six hours after transfection, media was removed and the cells were washed with phosphate-buffered saline (PBS). […] Three to four replicates were used for each sample. Transfections and subsequent procedures were performed on a Biomek 1000 automated laboratory work station.
(§7) After 40 hours, the cells were washed with PBS, lysed with a Triton X-100-based buffer and assayed for LUC and β-Gal activities using a luminometer or spectrophotometer, respectively. For each replicate, the normalized response (NR) was calculated as: LUC response/β-Gal rate • where β-Gal rate=β-Gal·1×10^−5/β-Gal incubation time.

human AR [3] = target: T1, human AR; experiment: Co-transfection assay, AR antagonist activity in presence of DHT, CV-1 cells; type: cell-based; design: expressed in transfected cells; host or cells: CV-1 cells (African green monkey kidney fibroblasts), transient transfection with pRShAR; settings: for AR Antagonist CV-1 Cells Efficacy (%): percent maximal inhibition, DHT at its EC50 concentration
Text: as §1, §2, §3, §4, §5, §6, §7

[4] = AR Antagonist CV-1 Cells Potency (nM), CV-1 cells, antagonist potency or IC50, DHT at its EC50 concentration

Row | SMILES | Ki (human AR [1]) [nM] | EC50 (human AR [2]) [nM] | AR Agonist CV-1 Cells Efficacy (%) (human AR [2]) | IC50 (human AR [3]; [4]) [nM] | AR Antagonist CV-1 Cells Efficacy (%) (human AR [3]; CV-1 cells) | IC50 (human AR [3]) [nM]
1 | CCCN1CCCc2cc3[nH]c(=O)cc(C(F)(F)F)c3cc21 [Compound 199, 4-Trifluoromethyl-6-propyl-6,7,8,9-tetrahydropyrido[2,3-g]quinolin-2(1H)-one] | 236 | 42 | 70% | > 10000 | na (na = not active (i.e. efficacy of <20 and potency of >10,000)) | –
2 | O=c1cc(C(F)(F)F)c2c3c(ccc2[nH]1)N(Cc1ccoc1)C1CCCC31 (racemic) [Compound 126, (±)-4c,5,6,7,7a(cis),8-Hexahydro-8-(3-furanylmethyl)-4-trifluoromethyl-cyclopentano[g]pyrrolo[3,2-f]quinolin-2(1H)-one] | 2.3 | – | 53% | > 10000 | na (na = not active (i.e. efficacy of <20 and potency of >10,000)) | –
3 | CCN1c2ccc3[nH]c(=O)cc(C(F)(F)F)c3c2CCC1(C)C [Compound 108, 8-Ethyl-5,6,7,8-tetrahydro-7,7-dimethyl-4-trifluoromethylpyridino[3,2-f]quinolin-2(1H)-one] | 6.7 | – | 66% | > 10000 | na (na = not active (i.e. efficacy of <20 and potency of >10,000)) | –
4 | O=c1cc(C(F)(F)F)c2c3c(ccc2[nH]1)N(CC(F)(F)F)C1CCCC31 (single isomer, unassigned; (+)) [Compound 178, (+)-4c,5,6,7,7a(cis),8-Hexahydro-8-(2,2,2-trifluoroethyl)-4-trifluoromethylcyclopentano-[g]pyrrolo[3,2-f]quinolin-2(1H)-one] | 900 | 21 | 24% | 50 | 48% | –
5 | O=c1cc(C(F)(F)F)c2cc3c(cc2[nH]1)c1c(n3CC(F)(F)F)CCC1 [Compound 159, 6-(2,2,2-Trifluoroethyl)-4-trifluoromethyl-6,7,8,9-tetrahydrocyclopentano[i]pyrrolo[2,3-g]quinolin-2(1H)-one] | 989 | > 10000 | na (na = not active (i.e. efficacy of <20 and potency of >10,000)) | 15 | 66% | –
6 | CCC1CCOc2c1ccc1[nH]c(=O)cc(C)c21 (racemic) [Compound 215, (±)-7,8-Dihydro-8-ethyl-4-methyl-6H-pyrano[2,3-f]quinolin-2(1H)-one] | 47 | 2070 | 28% | – | 77% | 17
7 | O=c1cc(C(F)(F)F)c2cc3c(cc2[nH]1)CCCN3CC1CC1 [Compound 201, 4-Trifluoromethyl-6-cyclopropylmethyl-6,7,8,9-tetrahydropyrido[2,3-g]quinolin-2(1H)-one] | 10 | – | 76% | > 10000 | na (na = not active (i.e. efficacy of <20 and potency of >10,000)) | –
8 | CCC1=CC(C)(C)Oc2cc3oc(=O)cc(C(F)(F)F)c3cc21 [Compound 227, 6-Ethyl-8,8-dimethyl-4-trifluoromethyl-8H-pyrano[3,2-g]coumarin] | 33 | > 10000 | na (na = not active (i.e. efficacy of <20 and potency of >10,000)) | 25 | 75% | –
9 | CCC1C(C)c2c(ccc3[nH]c(=O)cc(C(F)(F)F)c23)N1CC(F)(F)F (racemic) [Compound 134, (±)-5,6-cis-Dihydro-6-ethyl-5-methyl-7-(2,2,2-trifluoroethyl)-4-trifluoromethyl-7H-pyrrolo[3,2-f]quinolin-2(1H)-one] | 6.8 | 4.2 | 70% | > 10000 | na (na = not active (i.e. efficacy of <20 and potency of >10,000)) | –
10 | CCN1c2ccc3[nH]c(=O)cc(C(F)(F)F)c3c2C2CCCC21 (racemic) [Compound 121, (±)-4c,5,6,7,7a(cis),8-Hexahydro-8-ethyl-4-trifluoromethylcyclopentano-[g]pyrrolo[3,2-f]quinolin-2(1H)-one] | 7.6 | 43 | 97% | > 10000 | na (na = not active (i.e. efficacy of <20 and potency of >10,000)) | –
11 | CCCN1c2ccc3[nH]c(=O)cc(C(F)(F)F)c3c2CCC1(C)C [Compound 109, 5,6,7,8-Tetrahydro-7,7-dimethyl-4-trifluoromethyl-8-propylpyridino[3,2-f]quinolin-2(1H)-one] | 1.2 | 13 | 97% | > 10000 | na (na = not active (i.e. efficacy of <20 and potency of >10,000)) | –
